This note sets out measurements from patent US20090312380A1, “NOVEL COMPOSITIONS AND METHODS” (priority 2006, published 2009).

The nature of series [1]: BET nitrogen adsorption analysis, total specific surface area. To be noted: for Specific Surface Area (nitrogen): BET nitrogen adsorption model, 77.3K. It counts as physicochemical. An excerpt:
The D values represent particle size medians from the detected particle size distribution curves. D(v, x) means that 100x % of particles are smaller than the corresponding D value, and 100-100x % of particles are larger. The samples were also subjected to the Brunauer-Emmett-Teller (BET)-nitrogen adsorption analysis to determine the total surface area of the samples as follows:
Approximately 0.2-0.5 g of material (accurately weighed) was loaded into a surface area analyser glass tube fitted with a glass rod in order to minimise the overall free space. The sample was then outgased under vacuum at 30° C. for several hours. Upon completion of the outgas step, the sample tube was removed from the analyser and backfilled with helium to avoid refilling with air from the surrounding environment. The sample tube was reweighed in order to calculate the amount of dry sample used during the analysis step. The analyser tube was then loaded into the surface area analyser, and free space analysis was then conducted in order to account for the free volume in the tube and thus accurately measure the quantity of gas adsorbed directly on the powder surface. Nitrogen gas adsorption measurement was executed in a liquid nitrogen filled dewar at 77.3K. BET multipoint surface area determination was performed in the partial pressure range p/po=0.1-0.3 with 5 data points. Specific surface area calculation was performed by linear regression analysis of data according to the BET equation.

Series [2] can be described thus: Gravimetric vapour sorption (GVS), water vapour adsorption. To be noted: for water vapour adsorption (comparison): GVS, compared with samples B or C. It counts as physicochemical. From the text:
GVS is a method traditionally used to detect quantitative weight changes of samples as a function of the relative humidity (RH). Samples, which can comprise solid-state samples such as powders and tablets, but also liquids, are exposed to a defined humidity profile. The corresponding weight change is continuously recorded via an ultra-microbalance. Defined humidity levels are established by mixing defined ratios of a dry carrier gas, usually nitrogen, and a wet stream, typically a water vapour saturated carrier gas such as nitrogen. The RH level is then controlled by the ratio of the dry:wet stream. To maintain isothermal conditions, the GVS apparatus which comprises a microbalance and humidification unit is set up in an incubator system held at a defined temperature. The primary information obtained by a typical commercial GVS system is: • Kinetics of water uptake: • The kinetic of the water uptake is a mass vs. time plot at constant RH level. The equilibrium between sample and humidity can be determined from this information. • Sorption isotherms: • The equilibrium weight changes at each humidity are related to the dry mass of the sample (i.e. the equilibrium mass at 0% RH). The equilibrium weight changes as a function of the RH level are the corresponding sorption isotherms of the sample. Typical sorption isotherms comprise adsorption, i.e. increasing RH levels, and desorption, i.e. decreasing RH levels, cycles. Typically, RH ranges from 0-95% RH are covered. For this purpose, water vapour sorption experiments can be carried out as follows: • Adsorption segment range 0-98% RH, preferably 0-50% RH. • Adsorption segment RH-step size of 10% RH or smaller, preferably 5% RH or 2.5% RH. • Desorption segment range 98-0% RH, preferably 50-0% RH. • Desorption segment RH-step size of 10% RH or smaller, preferably 5% RH or 2.5% RH. • Equilibration times at each humidity of 15 minutes and longer, preferably 30 minutes and longer, most preferably 60 minutes and longer. The important factor here is that all water vapour sorption uptakes used for further evaluation do reach equilibrium, i.e. that the weight change over time within each RH-step kinetic should be very small at the end of each RH segment. For these purposes, typical equilibration times are given. • Isothermal temperature in the range 5-50° C., preferably 25-37° C., most preferably about 25° C. • Sample masses of 10-50 mg, preferably 15-50 mg. […] Compression/compaction of the sample should be avoided in order to ensure that there are enough voids in any powder sample to allow the water vapour to penetrate. From these experiments, the primary information obtained is the sorption kinetic (mass vs. time at constant humidity) as well as the conventional sorption isotherm (weight change related to dry value vs. RH level), as previously described. The four samples A-D of irbesartan were also subjected to GVS to assess the extent of any water adsorption. […] The water adsorption results obtained from the GVS analysis are illustrated in Table 3.

Structures are written as SMILES.

Regarding `CCCCC1=NC2(CCCC2)C(=O)N1Cc1ccc(-c2ccccc2-c2nnn[nH]2)cc1` [Sample A, irbesartan], the “Specific Surface Area (nitrogen)” value in series [1] was found to be 5.17 m^2/g. Further, the “Water Adsorption” value in series [2] (5 % RH) is reported as 0.06 wt %; in series [2] (10 % RH), 0.09 wt %; in series [2] (15 % RH), 0.12 wt %; in series [2] (20 % RH) it was 0.14 wt %; in series [2] (25 % RH), 0.17 wt %; in series [2] (30 % RH) it was 0.20 wt %. Besides, the “Water Adsorption” value in series [2] (35 % RH) is reported as 0.22 wt %; in series [2] (40 % RH) it was 0.24 wt %; in series [2] (50 % RH), 0.29 wt %; in series [2] (60 % RH), 0.34 wt %; in series [2] (70 % RH) it was 0.39 wt %; in series [2] (80 % RH), 0.44 wt %. For the same compound, in series [2] (90 % RH), the “Water Adsorption” value turned out to be 0.52 wt %. The “water vapour adsorption (comparison)” value in series [2] is “greater water vapour adsorption”. For the same compound, the “Rel. adsorbed amount n” value in series [2] (RH 0.33 %) stood at 0.0258 wt %; in series [2] (RH 4.98 %), 0.0592 wt %; in series [2] (RH 10.01 %) it was 0.0894 wt %; in series [2] (RH 15.00 %) it was 0.1179 wt %; in series [2] (RH 19.99 %), 0.1427 wt %; in series [2] (RH 25.02 %), 0.1723 wt %. Further, the “Rel. adsorbed amount n” value in series [2] (RH 30.00 %) came to 0.1987 wt %; in series [2] (RH 34.98 %) it was 0.2207 wt %; in series [2] (RH 40.02 %) it was 0.2439 wt %; in series [2] (RH 49.98 %), 0.2902 wt %; in series [2] (RH 60.00 %) it was 0.3392 wt %; in series [2] (RH 70.02 %) it was 0.3855 wt %. The “Rel. adsorbed amount n” value in series [2] (RH 79.99 %) was found to be 0.4372 wt %; in series [2] (RH 90.01 %) it was 0.5152 wt %; in series [2] (RH 93.03 %), 0.5233 wt %. For the same compound, the “Abs. adsorbed amount n” value in series [2] (RH 4.98 %) turned out to be 0.0110 mg; in series [2] (RH 10.01 %), 0.0166 mg; in series [2] (RH 15.00 %) it was 0.0219 mg; in series [2] (RH 19.99 %) it was 0.0265 mg; in series [2] (RH 25.02 %), 0.0320 mg; in series [2] (RH 30.00 %) it was 0.0369 mg.

With `CCCCC1=NC2(CCCC2)C(=O)N1Cc1ccc(-c2ccccc2-c2nnn[nH]2)cc1` [Sample B, irbesartan], the “specific surface area (ranking among samples A-D)” value in series [1] (BET nitrogen adsorption) is “greatest specific surface area”. For the same compound, the “Specific Surface Area (nitrogen)” value in series [1] is given as 6.16 m^2/g. For the same compound, the “Water Adsorption” value in series [2] (5 % RH) is given as 0.03 wt %; in series [2] (10 % RH) it was 0.04 wt %; in series [2] (15 % RH), 0.06 wt %; in series [2] (20 % RH), 0.07 wt %; in series [2] (25 % RH), 0.09 wt %; in series [2] (30 % RH), 0.10 wt %. Moreover, the “Water Adsorption” value in series [2] (35 % RH) is listed as 0.11 wt %; in series [2] (40 % RH) it was 0.13 wt %; in series [2] (50 % RH) it was 0.15 wt %; in series [2] (60 % RH), 0.18 wt %; in series [2] (70 % RH), 0.20 wt %; in series [2] (80 % RH), 0.23 wt %. Further, the “Water Adsorption” value in series [2] (90 % RH) amounted to 0.28 wt %.

Regarding `CCCCC1=NC2(CCCC2)C(=O)N1Cc1ccc(-c2ccccc2-c2nnn[nH]2)cc1` [Sample C, irbesartan], the “Specific Surface Area (nitrogen)” value in series [1] turned out to be 3.16 m^2/g. For the same compound, the “Water Adsorption” value in series [2] (5 % RH) is 0.04 wt %; in series [2] (10 % RH), 0.07 wt %; in series [2] (15 % RH), 0.08 wt %; in series [2] (20 % RH), 0.09 wt %; in series [2] (25 % RH), 0.11 wt %; in series [2] (30 % RH), 0.13 wt %. For the same compound, the “Water Adsorption” value is given as 0.14 wt % in series [2] (35 % RH); 0.15 wt % in series [2] (40 % RH); 0.18 wt % in series [2] (50 % RH); 0.21 wt % in series [2] (60 % RH); 0.23 wt % in series [2] (70 % RH); 0.27 wt % in series [2] (80 % RH). Besides, in series [2] (90 % RH), the “Water Adsorption” value was determined as 0.31 wt %.

Consider `CCCCC1=NC2(CCCC2)C(=O)N1Cc1ccc(-c2ccccc2-c2nnn[nH]2)cc1` [Sample D, irbesartan], for which, in series [1], the “Specific Surface Area (nitrogen)” value stood at 4.29 m^2/g. Also, the “Water Adsorption” value in series [2] (5 % RH) came to 0.07 wt %; in series [2] (10 % RH), 0.10 wt %; in series [2] (15 % RH), 0.13 wt %; in series [2] (20 % RH), 0.16 wt %; in series [2] (25 % RH), 0.19 wt %; in series [2] (35 % RH) it was 0.23 wt %. Moreover, the “Water Adsorption” value in series [2] (40 % RH) was found to be 0.26 wt %; in series [2] (50 % RH), 0.33 wt %; in series [2] (60 % RH), 0.39 wt %; in series [2] (70 % RH), 0.46 wt %; in series [2] (80 % RH), 0.52 wt %; in series [2] (90 % RH), 0.63 wt %. For the same compound, the “water vapour adsorption (comparison)” value in series [2] is recorded as “greater water vapour adsorption”.
